Legend:
[1] = target: T1, Trichoderma harzianum CBS 223.93 L-amino acid oxidase (Trichoderma harzianum, UniProt A0A2T4A4V3); assay: Substrate specificity: specific activity and Km with various L-amino acids as substrates; type: biochemical; conditions: for Km: Lineweaver-Burk plots (1/v versus 1/s); for Specific Activity / activity of the L-amino acid oxidase towards the substrate: phosphate buffer pH 8.5, room temperature; for Specific Activity: 20 minutes; for ranking of Km values among substrates: comparison of the substrates of Table 1
T1 sequence (A0A2T4A4V3 with tags, fused parts or gaps V19I/P71L/S84P/G163K/E317K/D352E/Y353H/V383A/D435A/DEL437-437/D438T/D462E/L570R/R580K/V618I): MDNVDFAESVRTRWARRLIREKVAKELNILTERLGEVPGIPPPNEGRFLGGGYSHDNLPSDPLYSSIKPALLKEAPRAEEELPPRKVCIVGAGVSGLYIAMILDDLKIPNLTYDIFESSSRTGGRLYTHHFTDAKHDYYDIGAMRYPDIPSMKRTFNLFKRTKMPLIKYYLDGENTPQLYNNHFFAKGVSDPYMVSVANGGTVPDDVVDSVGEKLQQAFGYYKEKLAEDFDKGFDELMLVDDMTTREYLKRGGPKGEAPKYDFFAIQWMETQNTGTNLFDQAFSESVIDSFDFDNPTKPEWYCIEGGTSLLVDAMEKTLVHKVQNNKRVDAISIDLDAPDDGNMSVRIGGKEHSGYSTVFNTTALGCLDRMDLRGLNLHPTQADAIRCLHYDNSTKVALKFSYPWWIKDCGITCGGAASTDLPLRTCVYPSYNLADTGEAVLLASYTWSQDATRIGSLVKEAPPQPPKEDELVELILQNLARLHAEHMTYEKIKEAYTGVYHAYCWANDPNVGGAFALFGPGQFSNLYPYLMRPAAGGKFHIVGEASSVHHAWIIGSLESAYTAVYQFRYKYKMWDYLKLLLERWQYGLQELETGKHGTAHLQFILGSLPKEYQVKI
Procedure: (§1) In the following characterization experiments, detection of H2 O2 was carried out using a Coprinus cinereus peroxidase (CiP), obtained according to WO 92/16634, at a level of 4.5 PODU/ml, and 0.4 mM ABTS in phosphate buffer at pH 7.0. The hydrogen peroxide concentrations were determined relative to a freshly prepared hydrogen peroxide standard solution.
For determination of substrate specificity, the activity of the L-amino acid oxidase was determined with various L-amino acids as substrates. The L-amino acid oxidase was incubated with the substrate in phosphate buffer at pH 8.5 and room temperature for 20 minutes. Generated hydrogen peroxide was detected using ABTS and CiP as described above. The specific activity was determined as described in Example 2 above.
Km values for the various substrates were determined by plotting values of 1/v versus 1/s (Lineweaver-Burk plots).

[2] = pH activity profile / pH optimum of the L-amino acid oxidase; type: biochemical, Trichoderma harzianum; conditions: 20 minutes, 1 mM L-arginine, 100 mM phosphate buffer; FIG. 1
Procedure: as §1
(§2) For determination of the pH optimum, the assay was carried out in two steps. In the first step, the L-amino acid oxidase was incubated for 20 minutes with 1 mM of L-arginine in 100 mM of phosphate buffer at various pH values. In the second step, the generated hydrogen peroxide was detected as described above.

[3] = Temperature stability of the L-amino acid oxidase (residual activity); type: physicochemical, Trichoderma harzianum; conditions: phosphate buffer pH 8.5, 1 hour, FIG. 3
Procedure: as §1, §2
For determination of temperature stability, the L-amino acid oxidase was incubated in phosphate buffer at pH 8.5 for 1 hour at various temperatures. After dilution, residual activity was measured using the two-step procedure described above.

[4] = pH stability of the L-amino acid oxidase (residual activity); type: physicochemical, Trichoderma harzianum; conditions: 1 hour at 40° C., 50 mM phosphate buffer, FIG. 2
Procedure: as §1, §2
For determination of pH stability, the L-amino acid oxidase was incubated at various pH values for 1 hour at 40° C. in 50 mM of phosphate buffer. After dilution, residual activity was measured using the two-step procedure described above.

[5] = Specific activity of the purified L-amino acid oxidase; type: biochemical, Trichoderma harzianum; conditions: 50 mM phosphate buffer pH 8.5, 20° C., 1 mM L-arginine as substrate
Procedure: For purposes of the present invention, L-amino acid oxidase activity is determined according to the procedure described in WO 94/25574 where the hydrogen peroxide produced during the […] of L-arginine is measured by coupling the reaction to a peroxidase in the presence of 2,2'-azinobis(3-ethylbenzothiazoline-6sulfonate) (ABTS) which produces a greenish-blue color at 418 nm. One unit of L-amino acid oxidase activity is defined as 1.0 μmole of hydrogen peroxide produced per minute at 20° C. in 50 mM phosphate buffer at pH 8.5 with 1 mM L-arginine as substrate.
The specific activity of the purified L-amino acid oxidase was 16 U/mg determined in a 50 mM phosphate buffer at pH 8.5, 20° C. with 1 mM L-arginine as substrate. One unit of enzyme will form 1 μmole of hydrogen peroxide per minute. The amount of protein was quantified assuming that a solution of the L-amino acid oxidase having an optical density of 1 determined at 280 nm contains 1 mg of protein/ml. The L-amino acid oxidase yield was approximately 50 mg of pure protein per liter of culture medium.

In the case of `NCCCC[C@H](N)C(=O)O` [L-lysine], the Km [1] is reported as 0.2 mM, the “Specific Activity” value ([1]; Substrate Conc. 1 mM) is reported as 7 U/mg and the “ranking of Km values among substrates” value [1] is reported as “lowest Km values”. The “activity of the L-amino acid oxidase towards the substrate” value [1] was “showed activity”.

For `N[C@@H](Cc1ccccc1)C(=O)O` [L-phenylalamine], the “Specific Activity” value ([1]; Substrate Conc. 80 mM) was 25 U/mg and the “activity of the L-amino acid oxidase towards the substrate” value [1] was “showed activity”.

With `NC(=O)C[C@H](N)C(=O)O` [L-asparagine] the “Specific Activity” value ([1]; Substrate Conc. 80 mM) was 7 U/mg and the “activity of the L-amino acid oxidase towards the substrate” value [1] was “showed activity”.

In the case of `CC(C)C[C@H](N)C(=O)O` [L-leucine], the “Specific Activity” value ([1]; Substrate Conc. 80 mM) is reported as 16 U/mg and the “activity of the L-amino acid oxidase towards the substrate” value [1] is reported as “showed activity”.

For `N=C(N)NCCC[C@H](N)C(=O)O` [L-arginine], the “Specific Activity” value ([1]; Substrate Conc. 1 mM) was 16 U/mg, the “Specific Activity” value ([1]; Substrate Conc. 10 mM) was 30 U/mg and the “ranking of Km values among substrates” value [1] was “lowest Km values”. For the same molecule, the preferred substrate ([1]; from the experiments of Table 1) was “preferred substrate” and the “activity of the L-amino acid oxidase towards the substrate” value [1] was “showed activity”.

For `CSCC[C@H](N)C(=O)O` [L-methionine], the Km [1] was 15 mM, the “Specific Activity” value ([1]; Substrate Conc. 80 mM) was 8 U/mg and the “activity of the L-amino acid oxidase towards the substrate” value [1] was “showed activity”.

B1: L-amino acid oxidase: purified L-amino acid oxidase from Trichoderma harzianum CBS 223.93; deduced protein of 617 amino acids (SEQ ID NO. 2) (protein)
chain: T1 sequence (A0A2T4A4V3 with tags, fused parts or gaps V19I/P71L/S84P/G163K/E317K/D352E/Y353H/V383A/D435A/DEL437-437/D438T/D462E/L570R/R580K/V618I)
For B1, the “pH interval in which activity is shown” value [2] was “from pH below 7 to a pH of approximately 12”, the pH optimum [2] was ~9 pH and the “temperature range in which the enzyme is stable” value [3] was “from below 22 °C to above 60 °C”. For the same molecule, the “temperature stability relative to initial activity” value ([3]; range 25° C. to 60° C.) was “more than 80%”, the “pH stability relative to initial activity” value ([4]; pH 10) was “more than 70%” and the “pH stability relative to initial activity” value ([4]; range pH 7-9.5) was “more than 80%”. For the same molecule, the “specific activity of the purified L-amino acid oxidase” value [5] was 16 U/mg.

Reference: patent publication US6248575A, “Nucleic acids encoding polypeptides having L-amino acid oxidase activity” (Novozymes Biotech, Inc., priority 1999, dated 2001)
